Laboratory results as given in patent US8828997B2, “2,3-dihydro-1H-imidazo(1,2-a)pyrimidin-5-one derivatives, preparation thereof, and pharmaceutical use thereof” (Sanofi, priority 2009, dated 2014).

Columns and labels:
[1] = test system: P. falciparum (highly chloroquine-resistant strain Fcm29-Cameroon); experiment: Antimalarial activity test (radioactive micromethod of Desjardins, tritiated hypoxanthine incorporation); assay type: cell-based; conditions: Plasmodium falciparum, Erythrocyte, infected human erythrocytes, 48 h
Method in brief: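 P. falciparum cultured in infected human erythrocytes (2% haematocrit, 1.5% parasitaemia) in RPMI 1640 with 5% human serum and 1% DMSO, exposed to compound for 48 h at 37 °C, 5% CO2. Tritiated hypoxanthine added at 24 h; growth inhibition versus drug-free incorporation, reported as % at 1 μM and 0.1 μM.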

[2] = test system: AKT protein phosphorylated on serine 473 (pAKT-S473) in PC3 human prostate carcinoma cells; experiment: pAKT expression in PC3 human prostate carcinoma cells measured by western blotting (test A); assay type: cell-based; conditions: PC-3, 1 to 2 h incubation, absolute IC50
Method: The inhibitory activity of the molecules on AKT phosphorylation is measured either by western blotting using the technique described below, or by the MSD Multi-spot Biomarker detection technique from Meso Scale Discovery also described below.
Study of pAKT Expression in PC3 Human Prostate Carcinoma Cells Measured by Western Blotting (test A):
This test is based on measuring the expression of the AKT protein phosphorylated on serine 473. The phosphorylation of AKT (pAKT) is measured by western blotting in the PC3 human prostate carcinoma line (ATCC CRL-1435), using an antibody that specifically recognises pAKT-S473.
On day 1, the PC3 cells are seeded into 6-well plates (TPP, #92006) at the concentration of 0.8×10^6 cells/well in 1800 μl of DMEM medium (DMEM Gibco #11960-044) containing 10% of foetal calf serum (SVF Gibco, #10500-056) and 1% glutamine (L-Glu Gibco #25030-024), and incubated at 37° C., 5% CO2, overnight.
On day 2, the cells are incubated in the presence or absence of the test products for 1 to 2 hours at 37° C. in the presence of 5% CO2. The molecules, diluted in dimethyl sulphoxide (DMSO Sigma #D2650), are added from a 10-times concentrated stock solution, the final percentage of DMSO being 0.1%. The molecules are tested either at a single concentration of less than or equal to 10 μM, or at increasing concentrations in a range that can extend from less than 1 nM to 10 μM.
After this incubation, the cells are lysed for the preparation of the proteins. After the culture medium has been drawn off, the cells are rinsed with 1 ml of PBS (DPBS Gibco, #14190-094), recovered by scraping in 200 μl of complete HNTG buffer and transferred into a 96-well plate (Greiner #651201), and lysed for 1 h on ice. The HNTG buffer is composed of the following mixture: 50 mM hepes, 150 mM NaCl, 1% triton, 10% glycerol, with extemporaneous addition of one Mini Protease Inhibitor Cocktail tablet (Roche 1836153) and of one Phosphatase Inhibitor Cocktail tablet (Roche104906837001) per 10 ml of buffer.
The lysate is centrifuged for 10 min at 6000 rpm. 155 μl of supernatant are recovered. 150 μl are incubated for denaturation for 5 min at 95° C. in the presence of 4× NuPAGE LDS Sample Buffer diluted 4-fold (InVitrogen ref NP0007) and of 10× NuPAGE Sample Reducing Agent diluted 10-fold (InVitrogen ref NP0009). These samples are then frozen at −20° C. 5 μl are assayed by the microBCA technique according to the technical bulletin of the MicroBCA Protein Assay Kit (Pierce #23235).
For protein separation, 20 μg of proteins are loaded on to a NU-PAGE 4-12% Bis Tris Gel 12 well (InVitrogen ref NP0322BOX) and the migration is carried out for 1 h 30 in 20× NU-PAGE MOPS SDS Running Buffer diluted 20-fold (InVitrogen ref NP0001), at 150 volts.
The gel is then transferred on to an Invitrolon PVDF membrane (Invitrogen #LC2007) permeabilised before and after a few seconds in ethanol (Ethanol Fischer Scientific #E/0600DF/15).
The transfer is carried out in a Biorad tank at 30 volts overnight or at 60 volts for 3 hours, in the presence of 20× NUPAGE Transfer Buffer diluted 20-fold (InVitrogen ref NP0006).
The membrane is then saturated in saturating solution composed of TBS (10× Tris Buffered Saline, Sigma #T5912, diluted 10-fold), 0.1% Tween 20 (Sigma #P5927) and 3% BSA (Bovine Albumin Serum Fraction V, Sigma #A4503) for 6 h after overnight transfer or else for 1 h after transfer for a period of 3 h.
The primary antibodies are diluted to 1/1000 for the anti-phospho AKT-Ser473 antibody (1931-12, rabbit monoclonal, cat#4058 from Cell Signaling Technology Abcam), in saturating solution composed of PBS, 0.1% Tween 20 and 3% BSA, and then shaken overnight at 4° C.
Two rinses for 5 min in washing solution composed of TBS and 0.1% Tween 20 are carried out before hybridisation of the secondary antibodies. […]

IC50 [2]: 100 nM
SMILES: COc1ccc(CCN2c3nc(N4CCOCC4)cc(=O)n3C[C@@]2(C)C(F)(F)F)cc1 [Example 1, (S)-1-[2-(4-Methoxyphenyl)ethyl]-2-methyl-7-morpholin-4-yl-2-trifluoromethyl-2,3-dihydro-1H-imidazo[1,2-a]pyrimidin-5-one]
inhibition at 0.1 µM ([1]; 0.1 μM): 67% | inhibition at 1 µM ([1]; 1 μM): 93%
